Patent US7902199B2, “Heterocyclic substituted piperazine compounds with CXCR3 antagonist activity” (Schering Corporation, priority 2006, dated 2011)

Each compound was assayed against T1, Human CXCR3 (N-delta 4) (Homo sapiens, UniProt P49682) (assay: Human CXCR3 (N-delta 4) Scintillation Proximity Assay (SPA), [125I] IP-10 binding). Conditions: rating; 25 pM [125I] IP-10, Ba/F3-hCXCR3 (N-delta 4) membranes, 3 hr room temperature.
T1 construct: CD8 leader (N); Flag; expressed in transfected cells; membrane preparation
T1 sequence (P49682 5-368 limits assumed): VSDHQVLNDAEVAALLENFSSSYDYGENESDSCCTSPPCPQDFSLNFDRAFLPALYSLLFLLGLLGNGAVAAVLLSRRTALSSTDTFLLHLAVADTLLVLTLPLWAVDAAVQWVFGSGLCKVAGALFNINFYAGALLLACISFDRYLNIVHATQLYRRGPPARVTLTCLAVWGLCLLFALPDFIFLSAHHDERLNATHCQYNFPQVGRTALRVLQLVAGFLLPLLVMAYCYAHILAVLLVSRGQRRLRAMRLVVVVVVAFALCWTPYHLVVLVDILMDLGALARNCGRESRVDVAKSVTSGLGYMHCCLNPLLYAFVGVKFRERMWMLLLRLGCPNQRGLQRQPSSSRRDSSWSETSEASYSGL
Text: The inventive compounds can readily be evaluated to determine activity at The CXCR3 receptors by known methods, such as, for example, Development of Human CXCR3 (N-delta 4) Binding Assay.
Cloning and Expression of Human CXCR3 (N-delta 4):
The DNA encoding human CXCR3 was cloned by PCR using human genomic DNA (Promega, Madison, Wis.) as a template. The PCR primers were designed based on the published sequence of human orphan receptor GPR9 (1) with incorporated restriction sites, a Kozak consensus sequence, CD8 leader and Flag tag. The PCR product was subcloned into the mammalian expression vector pME18neo, a derivative of the SR-alpha expression vector (designated as pME18Sneo-hCXCR3 (N-delta 4).
IL-3-dependent mouse pro-B cells Ba/F3 were transfected by electroporation in 0.4 ml Dulbecco's PBS containing 4×10^6 cells with 20 μg of pME18Sneo-hCXCR3 (N-delta 4) plasmid DNA. Cells were pulsed at 400 Volts, 100 OHMs, 960 μFd. The transfected cells were under selection with 1 mg/ml G418 (Life Technologies, Gaithersburg, Md.). G418-resistant Ba/F3 clones were screened for CXCR3 expression by specific binding of [^125I] IP-10 (NEN Life Science Products, Boston, Mass.).
Preparation of Ba/F3-hCXCR3 (N-delta 4) Membranes
Ba/F3 cells expressing human CXCR3 (N-delta 4) were pelleted and resuspended in the lysis buffer containing 10 mM HEPES, pH 7.5 and Complete® protease inhibitors (1 tablet per 100 ml) (Boehringer Mannheim, Indianapolis, Ind.) at a cell density of 20×10^6 cells per ml. After 5 minutes incubation on ice, cells were transferred to 4639 cell disruption bomb (Parr Instrument, Moline, Ill.) and applied with 1,500 psi of nitrogen for 30 minutes on ice. Large cellular debris was removed by centrifugation at 1,000×g. Cell membrane in the supernatant was sedimented at 100,000×g. The membrane was resuspended in the lysis buffer supplemented with 10% sucrose and stored at −80° C. Total protein concentration of the membrane was determined by BCA method from Pierce (Rockford, Ill.).
Human CXCR3 (N-delta 4) Scintillation Proximity Assay (SPA)
For each assay point, 2 μg of membrane was preincubated for 1 hr with 300 μg wheat germ agglutinin (WGA) coated SPA beads (Amersham, Arlington Heights, Ill.) in the binding buffer (50 mM HEPES, 1 mM CaCl2, 5 mM MgCl2, 125 mM NaCl, 0.002% NaN3, 1.0% BSA) at room temperature. The beads were spun down, washed once, resuspended in the binding buffer and transferred to a 96-well Isoplate (Wallac, Gaithersburg, Md.). 25 pM of [^125I] IP-10 with tested compounds in a series of titration were added to start the reaction. After 3 hr reaction at room temperature, the amount of [^125I] IP-10 bound to the SPA beads was determined with a Wallac 1450 Microbeta counter.
The Ki values for the various example compounds of the present invention are given in the afore-mentioned Table 1. From these values, it would be apparent to the skilled artisan that the compounds of the invention have excellent utility CXCR3 antagonists.
For CC[C@H]1CN(c2cnc(C(N)=O)cc2C)CCN1C1CCN(C(=O)c2ccc(Cl)cc2)CC1 [Compound 14], the Ki was > 100 nM.
In the case of CC[C@H]1CN(c2ccc(C(=O)NC3CC3)nc2Cl)[C@H](C)CN1C1CCN(C(=O)c2ccc(Cl)cc2)CC1 [Compound 7], the Ki is reported as < 25 nM.
For CC[C@H]1CN(c2ccc(C(N)=O)nc2C)CCN1C1CCN(C(=O)c2ccc(Cl)cc2)CC1 [Compound 10], the Ki was < 25 nM.
With CC[C@H]1CN(c2ccc(C(=O)NC3CC3)nc2C)CCN1C1CCN(C(=O)c2ccc(F)c(F)c2)CC1 [Compound 8] the Ki was < 25 nM.
In the case of CC[C@H]1CN(c2cnc(C#N)cc2C)CCN1C1CCN(C(=O)c2ccc(Cl)cc2)CC1 [Compound 12], the Ki is reported as > 100 nM.
CC[C@H]1CN(c2ccc(C(=O)NC3CC3)nc2C)CCN1C1CCN(Cc2ccc(OC(F)(F)F)cc2)CC1 [Compound 2] was tested, and the Ki was < 25 nM.
In the case of CCNC(=O)c1ccc(N2CCN(C3CCN(Cc4ccc(Cl)cc4)CC3)[C@@H](CC)C2)c(C)n1 [Compound 1], the Ki is reported as < 25 nM.
CC[C@H]1CN(c2ccc(C(=O)NC3CC3)nc2C)CCN1C1CCN(C(=O)c2ccc(Cl)cc2)CC1 [Compound 6] was tested, and the Ki was < 25 nM.
For CC[C@H]1CN(c2ccc(CO)nc2C)CCN1C1CCN(C(=O)c2ccc(Cl)cc2)CC1 [Compound 13], the Ki was > 100 nM.
For CC[C@H]1CN(c2ccc(C(N)=O)nc2C)CCN1C1CCN(Cc2ccc(Cl)cc2)CC1 [Compound 3], the Ki was < 25 nM.
For CC[C@H]1CN(c2ccc(C(N)=O)nc2C)CCN1C1CCN(Cc2ccc(OC(F)(F)F)cc2)CC1 [Compound 4], the Ki was < 25 nM.
For CC[C@H]1CN(c2ccc(C(=O)NC3CC3)nc2C(F)(F)F)[C@H](C)CN1C1CCN(C(=O)c2ccc(Cl)cc2)CC1 [Compound 11], the Ki was 25 to 100 nM.
CC[C@H]1CN(c2ccc(C(=O)NC3CC3)nc2C)[C@H](C)CN1C1CCN(C(=O)c2ccc(Cl)c(F)c2)CC1 [Compound 9] was tested, and the Ki was < 25 nM.
With CC[C@H]1CN(c2ccc(C(=O)NC3CC3)nc2C)CCN1C1CCN(C(=O)c2ccc(Cl)c(F)c2)CC1 [Compound 5] the Ki was < 25 nM.
